Assay results as given in patent publication US20050197385A1, “Use of rotigotine for treatment or prevention of dopaminergic neuron loss” (Schwarz Pharma AG, priority 2004, published 2005).

Assays:
[1] = system: neurons of the substantia nigra; test: Acute MPTP model (including apoptosis), FluoroJade stain of degenerating neurons; type: in vivo; conditions: mouse; for Number of degenerating neurons: FluoroJade stain
Method: About 16 hours before, Rotigotine is administered in doses of 0.3, 1 or 3 mg/kg each as the so-called ‘Slow-Release-Formulation’. […] After 24 hours the animals are killed and the brains fixed. The brain sections are stained with FluoroJade for identification of degenerated cells. The immunohistochemical marking of tyrosine-hydroxylase served the purpose of identification of dopaminergic neurons.

[2] = system: dopamine transporter (DAT) in striatum; test: Subacute MPTP model, [125I]PE2I dopamine transporter binding in striatum sections; type: in vivo; conditions: mouse
Method: Groups 1-7 were treated in the following manner: Group 1: Untreated control; Group 2: Control group treated with the excipient solution for Rotigotine and MPTP; Group 3: MPTP treatment; Group 4: MPTP treatment plus Rotigotine 0.3 mg/kg; Group 5: MPTP treatment plus Rotigotine 1.0 mg/kg; Group 6: MPTP treatment plus Rotigotine 3.0 mg/kg; Group 7: Treatment only with Rotigotine (3.0 mg/kg)
For intoxication, mice are administered 80 mg/kg of the neurotoxin 1-methyl-4-phenyl-1,2,3,6-tetrahydro-pyridine (MPTP) (in portions of 20 mg/kg at two-hour intervals, Group 3-6 in FIGS. 1 and 2), leading to a degeneration of the neurons of the substantia nigra of about 50-60% (maximum degeneration in Group 3 in FIGS. 1 and 2). Rotigotine is administered daily in doses of 0.3, 1, or 3 mg/kg each for 7 days in the so-called ‘Slow-Release-Formulation’ (see Working Example 2) (Group 4-6 in FIGS. 1 and 2). A group of MPTP treated animals (Group 3) is given Rotigotine excipient solution (see Working Example 2 without Rotigotine HCl) and serves as reference. […] PE2I ([^125I]-(E)-N(3-iodoprop-2-enyl)-2β-carboxymethyl-3β-(4′-methylphenyl)-nortropane) in phosphate buffer, pH 7.4, in order to mark the quantity of the still present dopamin transporter in striatum and thereby to indicate the quantity of functioning nerve ends.

[3] = system: Parkinson patients; conditions: cited from earlier work
[4] = system: MPTP-treated (macaque) monkeys; test: Progressive MPTP primate model (pilot study); type: in vivo
Method: In the model used, which reflects the progressive course of the Parkinson's disease on primates, subliminal toxic doses of MPTP were injected in (macaque) monkeys for several days. The Parkinson symptoms developed in the model in a period of about 2 weeks. As soon as a certain degree of damage was reached, Rotigotine was injected daily in a formulation that built up a continuous plasma level for 24 h. The MPTP injections were stopped as soon as the motor activity was reduced by a certain degree (approx. 5 days later). The behavior of the animals was assessed on a daily basis.
At the end of the Rotigotine injection or washout phase, a group each of animals was killed and the condition of the basal ganglion was examined histologically and biochemically.

[5] = system: Parkinson models; conditions: in vivo; cited from earlier work

SMILES | Number of degenerating neurons ([1]; MPTP excipient + Rotigotine 3.0 mg/kg (Rotigotine alone)) | Number of degenerating neurons ([1]; MPTP intoxication + Rotigotine 0.3 mg/kg) | Number of degenerating neurons ([1]; MPTP intoxication + Rotigotine 1.0 mg/kg) | Number of degenerating neurons ([1]; MPTP intoxication + Rotigotine 3.0 mg/kg) | Staining of tyrosine hydroxylase, treated versus untreated animals ([1]; acute MPTP model, 24 hours after MPTP, immunohistochemistry) | Decrease in the number of degenerated neurons after application of Rotigotine ([1]; acute MPTP model, FluoroJade, versus MPTP alone) | Number of degenerating neurons in the mesencephalon ([1]; acute phase after MPTP) | Survival of the neurons and their nerve ends (dopamine transporter quantity in striatum) ([2]; MPTP 80 mg/kg, Rotigotine 0.3, 1 or 3 mg/kg daily for 7 days, Slow-Release-Formulation) | Dopaminergic innervation of the striatum (dopamine transporter density) ([2]; subacute phase after MPTP) | Dyskinesias (Parkinson-associated motor function disorders) ([3]; patients with prominent dyskinesias, Metman et al 2001) | UPDRS (Unified Parkinson's Disease Rating Scale) score ([3]; transdermal administration to Parkinson patients, WO 02/089777) | Content of pre-pro-enkephalin ([4]; basal ganglion, after the treatment and the washout phase) | Motor activity of the animals ([4]; daily Rotigotine injection, during the treatment and in the following washout phase) | Density of the nerve endings in the striatum ([4]; end of Rotigotine injection or washout phase, compared to untreated animals) | Activity in Parkinson models [5]
CCCN(CCc1cccs1)C1CCc2c(O)cccc2C1 (single isomer, unassigned; (-)) [Rotigotine, (−)-5,6,7,8-Tetrahydro-6-[propyl[2-(2-thienyl)ethyl]amino]-1-naphthol] | 3.8 | 66.7 | 76.8 | 34.9 | does not show any difference | about 50% | reduced | improves the survival of the neurons and their nerve ends in dependence of the dosage | almost completely preserved or restored | improved | improvement | tendency toward normalization | clearly improved | significantly increased | –
CCCN(CCc1cccs1)[C@@H]1CCc2c(O)cccc2C1 [(R)-enantiomer] | – | – | – | – | – | – | – | – | – | – | – | – | – | – | inactive
